The results in this text go back to ChEMBL document CHEMBL4190175 (Medchemcomm, 2016).

The target in data set [1] is Transient receptor potential cation channel subfamily A member 1 (Homo sapiens, UniProt O75762). In words: Antagonist activity at human TRPA1 by electrophysiology assay.
Data set [2] in a line: Stability in rat plasma. Type of data set: ADME, cell-free. Particulars: read-out: Stability.
A short description of data set [3]: Dissociation constant, pKa of the compound. The format is physicochemical.
The next data set addresses Cytochrome P450 2C9 (Homo sapiens, UniProt P11712). Put plainly: Inhibition of CYP2C9 (unknown origin). Type of data set: ADME.
A short description of data set [4]: Oral bioavailability in rat. The format is ADME, organism-based. The following applies: in vivo.
The next data set concerns the target T1, Cytochrome P450 2C8 (Homo sapiens, UniProt P10632).
T1 sequence (P10632 whole entry): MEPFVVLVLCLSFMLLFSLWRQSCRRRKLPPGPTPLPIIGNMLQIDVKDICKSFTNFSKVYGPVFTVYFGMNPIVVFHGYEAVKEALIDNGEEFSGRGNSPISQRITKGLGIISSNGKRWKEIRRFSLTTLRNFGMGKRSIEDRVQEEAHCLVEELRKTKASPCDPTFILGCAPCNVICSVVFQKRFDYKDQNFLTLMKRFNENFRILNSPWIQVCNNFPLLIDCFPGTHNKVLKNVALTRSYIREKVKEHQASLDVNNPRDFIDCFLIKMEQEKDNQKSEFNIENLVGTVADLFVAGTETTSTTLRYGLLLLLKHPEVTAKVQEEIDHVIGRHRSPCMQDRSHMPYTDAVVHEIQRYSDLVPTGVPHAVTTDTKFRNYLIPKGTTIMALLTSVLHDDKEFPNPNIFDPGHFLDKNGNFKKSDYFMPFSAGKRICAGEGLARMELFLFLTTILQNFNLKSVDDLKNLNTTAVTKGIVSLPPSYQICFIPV
In words: Inhibition of CYP2C8 (unknown origin). Type of data set: ADME.

The nature of data set [5]: Passive permeability of the compound in RRCK cells. The format is ADME, cell-based, Canis lupus familiaris, MDCKII-LE. Particulars: dog, MDCK; read-out: permeability.
The nature of data set [6]: Fraction unbound in rat plasma. The format is ADME, cell-free.
The nature of data set [7]: Inhibition of GABA-A (unknown origin). Set-up: species or system Homo sapiens.

Each structure is given as a SMILES string.

Sequence of Cytochrome P450 2C9 (P11712 whole entry): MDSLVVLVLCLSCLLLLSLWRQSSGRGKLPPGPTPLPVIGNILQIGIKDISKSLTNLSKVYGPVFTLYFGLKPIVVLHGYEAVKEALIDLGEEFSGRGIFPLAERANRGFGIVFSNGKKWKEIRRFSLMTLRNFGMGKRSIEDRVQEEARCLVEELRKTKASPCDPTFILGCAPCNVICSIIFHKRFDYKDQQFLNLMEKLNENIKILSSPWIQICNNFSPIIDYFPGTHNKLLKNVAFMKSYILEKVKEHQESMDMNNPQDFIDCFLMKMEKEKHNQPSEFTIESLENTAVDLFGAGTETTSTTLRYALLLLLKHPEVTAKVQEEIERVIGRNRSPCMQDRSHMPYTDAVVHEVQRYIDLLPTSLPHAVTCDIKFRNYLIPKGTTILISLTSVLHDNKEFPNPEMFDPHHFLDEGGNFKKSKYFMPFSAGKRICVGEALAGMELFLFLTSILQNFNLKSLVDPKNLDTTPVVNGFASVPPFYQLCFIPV
Sequence of Transient receptor potential cation channel subfamily A member 1 (O75762 whole entry): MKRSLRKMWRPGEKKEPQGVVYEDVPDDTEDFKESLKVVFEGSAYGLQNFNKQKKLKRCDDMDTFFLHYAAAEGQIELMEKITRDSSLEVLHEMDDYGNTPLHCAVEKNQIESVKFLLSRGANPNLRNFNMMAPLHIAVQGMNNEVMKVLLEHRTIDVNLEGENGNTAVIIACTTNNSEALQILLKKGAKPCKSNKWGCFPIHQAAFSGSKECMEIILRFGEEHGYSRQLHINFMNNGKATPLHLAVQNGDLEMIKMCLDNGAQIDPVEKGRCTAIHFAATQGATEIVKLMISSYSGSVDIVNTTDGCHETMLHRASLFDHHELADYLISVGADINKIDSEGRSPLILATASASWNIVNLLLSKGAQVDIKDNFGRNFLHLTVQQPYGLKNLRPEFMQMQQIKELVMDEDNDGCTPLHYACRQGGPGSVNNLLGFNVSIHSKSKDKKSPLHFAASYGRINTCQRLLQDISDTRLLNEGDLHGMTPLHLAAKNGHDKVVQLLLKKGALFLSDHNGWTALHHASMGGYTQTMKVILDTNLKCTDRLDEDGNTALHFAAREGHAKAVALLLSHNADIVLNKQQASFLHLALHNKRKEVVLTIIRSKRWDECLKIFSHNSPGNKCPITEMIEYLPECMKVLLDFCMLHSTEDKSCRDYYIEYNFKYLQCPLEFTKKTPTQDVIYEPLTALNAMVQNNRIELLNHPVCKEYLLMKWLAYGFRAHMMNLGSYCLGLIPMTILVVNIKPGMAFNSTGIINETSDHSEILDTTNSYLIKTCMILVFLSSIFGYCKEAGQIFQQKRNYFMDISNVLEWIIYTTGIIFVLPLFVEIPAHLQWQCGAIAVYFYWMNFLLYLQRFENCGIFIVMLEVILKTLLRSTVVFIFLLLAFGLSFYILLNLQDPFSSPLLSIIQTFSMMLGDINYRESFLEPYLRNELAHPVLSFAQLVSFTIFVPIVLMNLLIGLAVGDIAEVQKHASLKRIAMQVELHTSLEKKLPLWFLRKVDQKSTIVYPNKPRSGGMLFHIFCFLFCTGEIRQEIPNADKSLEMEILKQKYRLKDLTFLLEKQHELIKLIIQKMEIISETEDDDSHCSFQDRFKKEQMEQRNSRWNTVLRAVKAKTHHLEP

For orientation: IC50 means the concentration needed to halve the response being measured. A low value points to higher potency. The pKa is the negative logarithm of the acid dissociation constant. A low value points to a group that gives up its proton readily. By bioavailability is commonly meant dose-corrected exposure relative to a reference, in per cent. Higher therefore signals good availability. In general, fraction unbound refers to free concentration divided by total concentration. Read a low fraction unbound as extensive binding. As to `O=C(NC[C@@H](Cc1ccccc1)N1CCC(O)(C(F)(F)F)CC1)C1(c2ccc(Cl)cc2)CCCC1`, the concentration for half-maximal inhibition (IC50) was found to be 0.0007 µM in data set [1], 11.4 µM against Cytochrome P450 2C9, 11.8 µM against Cytochrome P450 2C8 and 2.3 µM in data set [7]. Moreover, the half-life in data set [2] was greater than 6 h. In data set [3], this compound showed a pKa of 5.9. Moreover, the bioavailability in data set [4] was 5%. Moreover, the Papp in data set [5] was determined as 1 ×10⁻⁶ cm/s. For the same compound, the fraction unbound in data set [6] amounted to 0.00057.
